Laboratory results from patent US20260356821A1, “SOLID FORMS OF AN ERBB INHIBITOR” (Black Diamond Therapeutics, Inc., priority 2023, published 2026).
Values after ≈ are worked out from the molar mass of the structure shown. “Also recorded” adds a separate entry of the source.

How the values were obtained:
Type in all cases: physicochemical
[1] = Bulk Stability (solid state; HPLC purity, color, XRPD)
Method: (§1) X-ray Powder Diffractometer (XRPD): XRPD analysis was performed using a Bruker D8 Advance X-ray powder diffractometer. Analysis was performed using parameters as set forth below.
(§2) High Performance Liquid Chromatograph (HPLC): HPLC analysis was performed using SHIMADZU LC-20AD/Agilent 1260 infinity II Binary Pump. Analysis was performed using parameters as set forth below.
Bulk Stability: Form M was evaluated for bulk stability studies. The bulk stability study was conducted in 3 conditions including 25 °C/92% RH in an open container, 40 °C/75% RH in an open container and 60 °C in a tight container for 1 week, 2 weeks and 4 weeks, respectively.

[2] = Solubility in aqueous media, 37 °C
Method: as §1, §2
Solubility: 6.39 mg of the L-malate salt Form M (equal to 4 mg free base) was weighed into an 8 mL vial. 2 mL of aqueous media was added, respectively. The suspension was stirred at 37 °C with 400 rpm for 2 h and 24 h. The suspension was taken out after 2 h and 24 h and then centrifuged at 14,000 rpm for 5 min. The supernatant was analyzed by HPLC. The pH of the supernatant was tested. The solids obtained (wet cakes) were characterized by XRPD. Table 3 summarizes the observation of the solubility study.

Hygroscopicity by DVS = details: 25 °C
Method: as §1
Dynamic Vapor Sorption (DVS): DVS analysis was performed using Intrinsic. Analysis was performed using parameters as set forth below.
Hygroscopicity: The hygroscopicity for Form M was examined by DVS.

[3] = Crystallinity after drying under vacuum
Method: as §1
To explore further optimization of the crystallinity of the salt, about 25 mg of dry cake were re-equilibrated in 7 different solvents for 3 days. Solids obtained were analyzed by XRPD and 1H-NMR. […]

[4] = 25 °C/92% RH, open container, 1 week
[5] = 40 °C/75% RH, open container, 1 week
[6] = 40 °C/75% RH, open container, 2 weeks
[7] = 40 °C/75% RH, open container, 4 weeks
[8] = 60 °C, tight container, 2 weeks

Bulk (XRPD) [1, 4]: No form change (Agglomeration)
Color [1, 4]: No change of color
Color ([1]; 25 °C/92% RH, open container, 2 weeks): No change of color
Color ([1]; 25 °C/92% RH, open container, 4 weeks): No change of color
Bulk (XRPD) [1, 5]: No form change
Color [1, 5]: No change of color
Bulk (XRPD) [1, 6]: No form change
Color [1, 6]: No change of color
Bulk (XRPD) [1, 7]: No form change
Color [1, 7]: No change of color
Bulk (XRPD) ([1]; 60 °C, tight container, 1 week): No form change (Crystallinity decreased)
Color ([1]; 60 °C, tight container, 1 week): No change of color
Bulk (XRPD) [1, 8]: No form change (Crystallinity decreased)
Color [1, 8]: No change of color
Color ([1]; 60 °C, tight container, 4 weeks): No change of color
Initial Purity by HPLC ([1]; initial, before storage): 94.0%
Solubility ([2]; FaSSIF-v1, pH 6.5, 37 °C, 2 h): Degradation
pH of the supernatant ([2]; FaSSIF-v1, pH 6.5, 37 °C, 2 h): pH 4.9
Solubility ([2]; FaSSIF-v1, pH 6.5, 37 °C, 24 h): Degradation
pH of the supernatant ([2]; FaSSIF-v1, pH 6.5, 37 °C, 24 h): pH 4.8
Solubility ([2]; FeSSIF-v1, pH 5.0, 37 °C, 2 h): Degradation
pH of the supernatant ([2]; FeSSIF-v1, pH 5.0, 37 °C, 2 h): pH 4.9
Solubility ([2]; FeSSIF-v1, pH 5.0, 37 °C, 24 h): Degradation
pH of the supernatant ([2]; FeSSIF-v1, pH 5.0, 37 °C, 24 h): pH 4.8
pH of the supernatant ([2]; SGF, pH 2.0, 37 °C, 2 h): pH 2.8
solubility at 2 h ([2]; SGF, pH 2.0, 37 °C, 2 h): > 2000 µg/mL
pH of the supernatant ([2]; SGF, pH 2.0, 37 °C, 24 h): pH 2.6
solubility at 24 h ([2]; SGF, pH 2.0, 37 °C, 24 h): > 2000 µg/mL
pH of the supernatant ([2]; Water, 37 °C, 2 h): pH 4.3
solubility at 2 h ([2]; Water, 37 °C, 2 h): 1490 µg/mL (≈ 2.65 mM)
pH of the supernatant ([2]; Water, 37 °C, 24 h): pH 4.3
solubility at 24 h ([2]; Water, 37 °C, 24 h): 1780 µg/mL (≈ 3.17 mM)
solubility at 2 h ([2]; aqueous buffer, pH 4.5 (50 mM) acetate buffer, 37 °C, 2 h): > 2000 µg/mL
solubility at 24 h ([2]; aqueous buffer, pH 4.5 (50 mM) acetate buffer, 37 °C, 24 h): > 2000 µg/mL
solubility at 2 h ([2]; aqueous buffer, pH 6.8 (50 mM) phosphate buffer, 37 °C, 2 h): 183 µg/mL (≈ 0.326 mM)
solubility at 24 h ([2]; aqueous buffer, pH 6.8 (50 mM) phosphate buffer, 37 °C, 24 h): 189 µg/mL (≈ 0.336 mM)
pH of the supernatant ([2]; pH 1.0 (0.1N HCl), 37 °C, 2 h): pH 0.9
solubility at 2 h ([2]; pH 1.0 (0.1N HCl), 37 °C, 2 h): > 2000 µg/mL
pH of the supernatant ([2]; pH 1.0 (0.1N HCl), 37 °C, 24 h): pH 0.8
solubility at 24 h ([2]; pH 1.0 (0.1N HCl), 37 °C, 24 h): > 2000 µg/mL
pH of the supernatant ([2]; pH 4.5 (50 mM) acetate buffer, 37 °C, 2 h, marked *): pH 4.5*
pH of the supernatant ([2]; pH 4.5 (50 mM) acetate buffer, 37 °C, 24 h): pH 4.4
pH of the supernatant ([2]; pH 6.8 (50 mM) phosphate buffer, 37 °C, 2 h): pH 6.2
pH of the supernatant ([2]; pH 6.8 (50 mM) phosphate buffer, 37 °C, 24 h): pH 6.3
Desorp. (%) (Hygroscopicity by DVS; 0% RH, first desorption): 0.0%
Sorp. (%) (Hygroscopicity by DVS; 0% RH, second sorption): 0.0%
Desorp. (%) (Hygroscopicity by DVS; 10% RH, first desorption): 1.4%
Sorp. (%) (Hygroscopicity by DVS; 10% RH, second sorption): 0.6%
Desorp. (%) (Hygroscopicity by DVS; 20% RH, first desorption): 2.5%
Sorp. (%) (Hygroscopicity by DVS; 20% RH, second sorption): 1.4%
Desorp. (%) (Hygroscopicity by DVS; 30% RH, first desorption): 3.6%
Sorp. (%) (Hygroscopicity by DVS; 30% RH, second sorption): 2.2%
Desorp. (%) (Hygroscopicity by DVS; 40% RH, first desorption): 5.0%
Sorp. (%) (Hygroscopicity by DVS; 40% RH, first sorption): 4.1%
Desorp. (%) (Hygroscopicity by DVS; 40% RH, second desorption): 5.2%
Sorp. (%) (Hygroscopicity by DVS; 40% RH, second sorption): 3.1%
Desorp. (%) (Hygroscopicity by DVS; 50% RH, first desorption): 6.1%
Sorp. (%) (Hygroscopicity by DVS; 50% RH, first sorption): 4.4%
Desorp. (%) (Hygroscopicity by DVS; 50% RH, second desorption): 6.4%
Sorp. (%) (Hygroscopicity by DVS; 50% RH, second sorption): 4.2%
Desorp. (%) (Hygroscopicity by DVS; 60% RH, first desorption): 7.4%
Sorp. (%) (Hygroscopicity by DVS; 60% RH, first sorption): 4.9%
Desorp. (%) (Hygroscopicity by DVS; 60% RH, second desorption): 7.4%
Sorp. (%) (Hygroscopicity by DVS; 60% RH, second sorption): 5.6%
Desorp. (%) (Hygroscopicity by DVS; 70% RH, first desorption): 9.3%
Sorp. (%) (Hygroscopicity by DVS; 70% RH, first sorption): 5.6%
Desorp. (%) (Hygroscopicity by DVS; 70% RH, second desorption): 8.7%
Sorp. (%) (Hygroscopicity by DVS; 70% RH, second sorption): 7.5%
Desorp. (%) (Hygroscopicity by DVS; 80% RH, first desorption): 13.5%
Sorp. (%) (Hygroscopicity by DVS; 80% RH, first sorption): 6.9%
Desorp. (%) (Hygroscopicity by DVS; 80% RH, second desorption): 11.4%
Sorp. (%) (Hygroscopicity by DVS; 80% RH, second sorption): 9.7%
Desorp. (%) (Hygroscopicity by DVS; 90% RH, first desorption): 29.5%
Sorp. (%) (Hygroscopicity by DVS; 90% RH, first sorption): 15.3%
Desorp. (%) (Hygroscopicity by DVS; 90% RH, second desorption): 20.9%
Sorp. (%) (Hygroscopicity by DVS; 90% RH, second sorption): 15.8%
Desorp. (%) (Hygroscopicity by DVS; 95% RH, first desorption): 41.2%
Sorp. (%) (Hygroscopicity by DVS; 95% RH, first sorption): 41.2%
Desorp. (%) (Hygroscopicity by DVS; 95% RH, second desorption): 31.5%
Sorp. (%) (Hygroscopicity by DVS; 95% RH, second sorption): 31.5%
XRPD after DVS test (Hygroscopicity by DVS; after cycle 40-95-0-95-40% RH): No form change
DVS (Hygroscopicity by DVS; at 70% RH): 1.5% at 70% RH
DVS (Hygroscopicity by DVS; at 95% RH): 37.1% at 95% RH
crystallinity after drying [3]: crystallinity decreased
SMILES: CN1C[C@H]2C[C@@]2(C#Cc2cc3ncnc(Nc4cccc(Cl)c4F)c3cc2NC(=O)/C=C/CN2CCOCC2)C1 [Form M, (E)-N-(4-((3-chloro-2-fluorophenyl)amino)-7-(((1R,5S)-3-methyl-3-azabicyclo[3.1.0]hexan-1-yl)ethynyl)quinazolin-6-yl)-4-morpholinobut-2-enamide]
Bulk (XRPD) ([1]; 25 °C/92% RH, open container, 2 weeks, no form change after dried under ambient condition): Sticky sample;; also recorded: No form change after dried under ambient
Bulk (XRPD) ([1]; 25 °C/92% RH, open container, 4 weeks, no form change after dried under ambient condition): Sticky sample;; also recorded: No form change after dried under ambient
Bulk (XRPD) ([1]; 60 °C, tight container, 4 weeks, (Crystallinity decreased)): No form change; also recorded: (Crystallinity decreased)
